According to paper PMC6895180 (Nature Communications, 2019):
Values joined by “and” are separate entries in the source; they are usually repeats but may differ in a detail not shown here. Identical values can stand only once.

Legend:
[1] = system: T. b. brucei AnTAR1.1 PPYRE9; assay: Mouse model of stage 2 HAT (BLI, parasitaemia, SL-RNA qPCR); assay type: in vivo; conditions: for BLI of the head region, RLU data: individual animals
Procedure: […] Treatment was initiated at 21 dpi. […] Mice were injected i.p. with […] of D-luciferin and anaesthetised using isoflurane. The luminescent signal was acquired from both the dorsal and ventral side of the animals. […] Animals subjected to the different treatment schemes (from 4 wpi) were additionally imaged over a 5 min exposure time for enhanced sensitivity. […] Tissues were weighed and RNA was extracted using the RNeasy Plus Mini Kit (Qiagen) according to the manufacturer’s recommendations. […] A list of primers used is provided in the Supplementary Methods section of the Supplementary Information. BLI images from the IVIS Spectrum In Vivo Imaging System (Perkin Elmer) were analysed using LivingImage v4.3.1. SoftWoRx suite 2.0 for microscopy (image deconvolution), then processing using the Fiji software.

[2] = system: bloodstream form T. brucei 427WT; assay: Wash-out experiments with T. brucei; assay type: cell-based, Trypanosoma brucei
Procedure: Wash-out experiments with T. brucei
A culture of bloodstream form T. brucei 427WT, at mid-log phase of growth, was harvested and resuspended at a density of 10^5 cells mL-1, in fresh medium containing either no test compound, or […]
The cultures were incubated under standard conditions (37 °C/5% CO2) and cell counts were performed manually using a haemocytometer under phase contrast microscopy, every 24 h. The culture in continuous presence of analogue 9 was split in two at 8 h and 48 h (as indicated with arrows in Supplementary Figure S2). The split cultures were centrifuged and resuspended in the same volume of either fresh medium without test compound or fresh medium with the same concentration of compound 9 as before, reincubated. The detection limit for the manual cell count was 10^4 cells mL-1. […]

[3] = oral 6.25 mg kg^−1 s.i.d. for 5 days
[4] = oral 12.5 mg kg^−1 s.i.d. for 5 days
[5] = oral 25 mg kg^−1 s.i.d. for 5 days

For `Nc1ncnc2c1ccn2[C@@H]1O[C@H](CO)C[C@H]1O` [Compound 9, 3’-deoxytubercidin], the “RLU data, individual mice” value ([1]; 6.25 mg/kg SID, 3 wpi) was 1622000 RLU and 3182000 RLU and 2182000 RLU, the “RLU data, individual mice” value ([1]; 6.25 mg/kg SID, 4 wpi) was 193100 RLU and 167700 RLU and 117800 RLU and the “RLU data, individual mice” value ([1]; 6.25 mg/kg SID, 5 wpi) was 198100 RLU and 192400 RLU and 180700 RLU. For the same molecule, the “RLU data, individual mice” value ([1]; 6.25 mg/kg SID, 6 wpi) was 97950 RLU and 93770 RLU and 90330 RLU, the “RLU data, individual mice” value ([1]; 6.25 mg/kg SID, 7 wpi) was 113500 RLU and 105600 RLU and 105900 RLU and the “RLU data, individual mice” value ([1]; 6.25 mg/kg SID, 8 wpi) was 131900 RLU and 113000 RLU and 102800 RLU. The “RLU data, individual mice” value ([1]; 6.25 mg/kg SID, 9 wpi) was 108500 RLU and 102400 RLU and 89250 RLU, the “RLU data, individual mice” value ([1]; 6.25 mg/kg SID, 11 wpi) was 85510 RLU and 79310 RLU and 77130 RLU and the “RLU data, individual mice” value ([1]; 6.25 mg/kg SID, 12 wpi) was 86540 RLU and 80590 RLU and 72940 RLU. For the same molecule, the “RLU data, individual mice” value ([1]; 6.25 mg/kg SID, 14 wpi) was 72880 RLU and 70430 RLU and 75490 RLU, the “RLU data, individual mice” value ([1]; 12.5 mg/kg SID, 3 wpi) was 11680000 RLU and 7405000 RLU and the “RLU data, individual mice” value ([1]; 12.5 mg/kg SID, 4 wpi) was 129800 RLU and 121500 RLU. For the same molecule, the “RLU data, individual mice” value ([1]; 12.5 mg/kg SID, 5 wpi) was 117000 RLU and 123200 RLU, the “RLU data, individual mice” value ([1]; 12.5 mg/kg SID, 6 wpi) was 100200 RLU and 88860 RLU and the “RLU data, individual mice” value ([1]; 12.5 mg/kg SID, 7 wpi) was 107000 RLU and 110100 RLU. For the same molecule, the “RLU data, individual mice” value ([1]; 12.5 mg/kg SID, 8 wpi) was 112000 RLU and 128000 RLU, the “RLU data, individual mice” value ([1]; 12.5 mg/kg SID, 9 wpi) was 99900 RLU and 94080 RLU and the “RLU data, individual mice” value ([1]; 12.5 mg/kg SID, 11 wpi) was 77540 RLU and 81340 RLU. The “RLU data, individual mice” value ([1]; 12.5 mg/kg SID, 12 wpi) was 79330 RLU and 83380 RLU, the “RLU data, individual mice” value ([1]; 12.5 mg/kg SID, 14 wpi) was 72090 RLU and 77840 RLU and the “RLU data, individual mice” value ([1]; 25 mg/kg BID, 3 wpi) was 4672000 RLU and 30200000 RLU. The “RLU data, individual mice” value ([1]; 25 mg/kg BID, 4 wpi) was 134400 RLU and 112900 RLU, the “RLU data, individual mice” value ([1]; 25 mg/kg BID, 5 wpi) was 112900 RLU and 115900 RLU and the “RLU data, individual mice” value ([1]; 25 mg/kg BID, 6 wpi) was 102800 RLU and 99010 RLU. The “RLU data, individual mice” value ([1]; 25 mg/kg BID, 7 wpi) was 102400 RLU and 91660 RLU, the “RLU data, individual mice” value ([1]; 25 mg/kg BID, 8 wpi) was 110100 RLU and 102600 RLU and the “RLU data, individual mice” value ([1]; 25 mg/kg BID, 9 wpi) was 102800 RLU and 96280 RLU. The “RLU data, individual mice” value ([1]; 25 mg/kg BID, 11 wpi) was 72280 RLU and 73020 RLU, the “RLU data, individual mice” value ([1]; 25 mg/kg BID, 12 wpi) was 82420 RLU and 78930 RLU and the “RLU data, individual mice” value ([1]; 25 mg/kg BID, 14 wpi) was 77680 RLU and 76600 RLU. The “RLU data, individual mice” value ([1]; 25 mg/kg SID, 3 wpi) was 2495000 RLU and 617400 RLU and 13720000 RLU, the “RLU data, individual mice” value ([1]; 25 mg/kg SID, 4 wpi) was 173900 RLU and 151500 RLU and 120200 RLU and the “RLU data, individual mice” value ([1]; 25 mg/kg SID, 5 wpi) was 135900 RLU and 123400 RLU and 110100 RLU. For the same molecule, the “RLU data, individual mice” value ([1]; 25 mg/kg SID, 6 wpi) was 109500 RLU and 97640 RLU and 94120 RLU, the “RLU data, individual mice” value ([1]; 25 mg/kg SID, 7 wpi) was 98810 RLU and 105800 RLU and 87010 RLU and the “RLU data, individual mice” value ([1]; 25 mg/kg SID, 8 wpi) was 114800 RLU and 132100 RLU and 110100 RLU. The “RLU data, individual mice” value ([1]; 25 mg/kg SID, 9 wpi) was 104700 RLU and 110500 RLU and 91280 RLU, the “RLU data, individual mice” value ([1]; 25 mg/kg SID, 11 wpi) was 73650 RLU and 88470 RLU and 81640 RLU and the “RLU data, individual mice” value ([1]; 25 mg/kg SID, 12 wpi) was 90290 RLU and 88590 RLU and 87820 RLU. For the same molecule, the “RLU data, individual mice” value ([1]; 25 mg/kg SID, 14 wpi) was 78620 RLU and 86010 RLU and 72810 RLU, the “BLI of the head region, RLU data” value ([1]; 3 wpi (start of treatment, 21 dpi)) was 48700000 RLU and 33400000 RLU and the “BLI of the head region, RLU data” value ([1]; 4 wpi) was 98400 RLU and 114000 RLU. The “BLI of the head region, RLU data” value ([1]; 5 wpi) was 100000 RLU and 105000 RLU, the “BLI of the head region, RLU data” value ([1]; 6 wpi) was 109000 RLU and 110000 RLU and the “BLI of the head region, RLU data” value ([1]; 7 wpi) was 99500 RLU and 92000 RLU. The “BLI of the head region, RLU data” value ([1]; 8 wpi) was 107000 RLU and 96700 RLU, the “BLI of the head region, RLU data” value ([1]; 9 wpi) was 90800 RLU and 104000 RLU and the “BLI follow-up of surviving mice up to 14 wpi” value ([1]; mouse, in vivo) was “did not reveal any signs of relapse”. For the same molecule, the “bioluminescent imaging (BLI)” value [1, 3] was “total clearance in all organs including the CNS”, the “blood parasitaemia up to 9 wpi” value [1, 3] was “negative blood parasitaemia” and the “bioluminescent imaging (BLI)” value [1, 4] was “total clearance in all organs including the CNS”. For the same molecule, the “blood parasitaemia up to 9 wpi” value [1, 4] was “negative blood parasitaemia”, the “bioluminescent imaging (BLI)” value ([1]; oral 25 mg kg^−1 b.i.d. for 5 days) was “total clearance of all organs, including the CNS” and the “blood parasitaemia and survival at 9 wpi” value ([1]; oral 25 mg kg^−1 b.i.d. for 5 days from 21 dpi) was “negative blood parasitaemia and survived the pre-set endpoint”. The “bioluminescent imaging (BLI)” value [1, 5] was “total clearance in all organs including the CNS”, the “blood parasitaemia up to 9 wpi” value [1, 5] was “negative blood parasitaemia” and the “parasite burdens in brain, spleen and fat by SL-RNA qPCR” value ([1]; tissues collected at 121 dpi) was “complete absence of parasite burdens”. The “luminescent signal in the head region” value ([1]; to levels similar to a non-infected control mouse) was “rapid decline of the signal”, the “parasites recovered after wash-out” value ([2]; 0.500 µM, 48 h of exposure and subsequent removal, up to 120 h) was “no parasites were recovered” and the Manual cell count ([2]; Exp. 1, 0.165 µM, 8 h wash, 8 h) was 60000 cells mL-1. For the same molecule, the Manual cell count ([2]; Exp. 1, 0.165 µM, 8 h wash, 24 h) was 10000 cells mL-1, the Manual cell count ([2]; Exp. 1, 0.165 µM, 8 h wash, 48 h) was 40000 cells mL-1 and the Manual cell count ([2]; Exp. 1, 0.165 µM, 8 h wash, 72 h) was 600000 cells mL-1. It also gave a Manual cell count ([2]; Exp. 1, 0.165 µM, 8 h wash, 96 h) of 3800000 cells mL-1, a Manual cell count ([2]; Exp. 1, 0.165 µM, 8 h wash, 120 h) of 1300000 cells mL-1 and a Manual cell count ([2]; Exp. 1, 0.165 µM, 48 h wash, 72 h) of 20000 cells mL-1. The Manual cell count ([2]; Exp. 1, 0.165 µM, 48 h wash, 96 h) was 40000 cells mL-1, the Manual cell count ([2]; Exp. 1, 0.165 µM, 48 h wash, 120 h) was 280000 cells mL-1 and the Manual cell count ([2]; Exp. 1, 0.165 µM, Continuous, 8 h) was 120000 cells mL-1. It also gave a Manual cell count ([2]; Exp. 1, 0.165 µM, Continuous, 96 h) of 10000 cells mL-1, a Manual cell count ([2]; Exp. 1, 0.165 µM, Continuous, 120 h) of 30000 cells mL-1 and a Manual cell count ([2]; Exp. 2, 0.500 µM, 8 h wash, 8 h) of 55000 cells mL-1. The Manual cell count ([2]; Exp. 2, 0.500 µM, 8 h wash, 24 h) was 10000 cells mL-1, the Manual cell count ([2]; Exp. 2, 0.500 µM, 8 h wash, 48 h) was 10000 cells mL-1 and the Manual cell count ([2]; Exp. 2, 0.500 µM, 8 h wash, 72 h) was 10000 cells mL-1. It also gave a Manual cell count ([2]; Exp. 2, 0.500 µM, 8 h wash, 96 h) of 30000 cells mL-1, a Manual cell count ([2]; Exp. 2, 0.500 µM, 8 h wash, 120 h) of 430000 cells mL-1 and a Manual cell count ([2]; Exp. 2, 0.500 µM, Continuous, 8 h) of 110000 cells mL-1.
